Legend:
Assay in all cases: relative viability (nuclei count vs DMSO), 5 days (fraction); higher = more cells survive
NCI-H727 = system: NCI-H727
Procedure, shortened: (§1)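 Relative viability divides the nuclei count in treated wells by that in vehicle wells. Lung cancer cell lines were seeded in 1536-well plates, dosed by pin tool the next day, and fixed and stained after 5 days in one step with final 0.05% Triton X-100, 1% formaldehyde and 1 ug/ml Hoechst. Dosing was a single drug or a fixed anchor-drug dose plus five library-drug doses (not always all listed) in √10 steps, and values are medians of duplicate plates imaged at 4×.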

PC-14 = system: PC-14
Procedure, shortened: as §1

NCI-H1355 = system: NCI-H1355
Procedure, shortened: as §1

NCI-H1563 = system: NCI-H1563
Procedure, shortened: as §1

LCLC-103H = system: LCLC-103H
Procedure, shortened: as §1

LXF-289 = system: LXF-289
Procedure, shortened: as §1

NCI-H2170 = system: NCI-H2170
Procedure, shortened: as §1

NCI-H661 = system: NCI-H661
Procedure, shortened: as §1

NCI-H596 = system: NCI-H596
Procedure, shortened: as §1

NCI-H441 = system: NCI-H441
Procedure, shortened: as §1

NCI-H650 = system: NCI-H650
Procedure, shortened: as §1

RERF-LC-KJ = system: RERF-LC-KJ
Procedure, shortened: as §1

NCI-H1651 = system: NCI-H1651
Procedure, shortened: as §1

NCI-H1755 = system: NCI-H1755
Procedure, shortened: as §1

NCI-H460 = system: NCI-H460
Procedure, shortened: as §1

SK-MES-1 = system: SK-MES-1
Procedure, shortened: as §1

NCI-H2347 = system: NCI-H2347
Procedure, shortened: as §1

NCI-H3122 = system: NCI-H3122
Procedure, shortened: as §1

NCI-H520 = system: NCI-H520
Procedure, shortened: as §1

NCI-H1915 = system: NCI-H1915
Procedure, shortened: as §1

NCI-H1792 = system: NCI-H1792
Procedure, shortened: as §1

NCI-H322M = system: NCI-H322M
Procedure, shortened: as §1

`O=C(O)c1ccc(-c2c[nH]c3ncc(-c4ccccc4)cc23)cc1C1CCCC1` + Cc1nc(NC(=O)N2CCC[C@H]2C(N)=O)sc1-c1ccnc(C(C)(C)C(F)(F)F)c1 [Alpelisib] (partner 2 µM) gave a relative viability (NCI-H727; first compound 0.04 µM) of 0.545, a relative viability (NCI-H727; first compound 0.1265 µM) of 0.629 and a relative viability (NCI-H727; first compound 0.4 µM) of 0.7. For the same molecule, the relative viability (NCI-H727; first compound 1.265 µM) was 0.49, the relative viability (PC-14; first compound 0.04 µM) was 0.933 and the relative viability (PC-14; first compound 0.1265 µM) was 0.897. It also gave a relative viability (PC-14; first compound 0.4 µM) of 0.971, a relative viability (PC-14; first compound 1.265 µM) of 0.886 and a relative viability (NCI-H1355; first compound 0.04 µM) of 0.795. It also gave a relative viability (NCI-H1355; first compound 0.1265 µM) of 0.804, a relative viability (NCI-H1355; first compound 0.4 µM) of 0.819 and a relative viability (NCI-H1355; first compound 1.265 µM) of 0.621. It also gave a relative viability (NCI-H1563; first compound 0.04 µM) of 1.01, a relative viability (NCI-H1563; first compound 0.1265 µM) of 0.961 and a relative viability (NCI-H1563; first compound 0.4 µM) of 0.891. The relative viability (NCI-H1563; first compound 1.265 µM) was 0.991, the relative viability (LCLC-103H; first compound 0.04 µM) was 1.01 and the relative viability (LCLC-103H; first compound 0.1265 µM) was 1.02. The relative viability (LCLC-103H; first compound 0.4 µM) was 1.08, the relative viability (LCLC-103H; first compound 1.265 µM) was 0.984 and the relative viability (LXF-289; first compound 0.04 µM) was 0.979. It also gave a relative viability (LXF-289; first compound 0.1265 µM) of 1.05, a relative viability (LXF-289; first compound 0.4 µM) of 0.756 and a relative viability (LXF-289; first compound 1.265 µM) of 0.286. The relative viability (NCI-H2170; first compound 0.04 µM) was 0.812, the relative viability (NCI-H2170; first compound 0.1265 µM) was 0.803 and the relative viability (NCI-H2170; first compound 0.4 µM) was 0.774. For the same molecule, the relative viability (NCI-H2170; first compound 1.265 µM) was 0.584, the relative viability (NCI-H661; first compound 0.04 µM) was 0.48 and the relative viability (NCI-H661; first compound 0.1265 µM) was 0.676. For the same molecule, the relative viability (NCI-H661; first compound 0.4 µM) was 0.675, the relative viability (NCI-H661; first compound 1.265 µM) was 0.703 and the relative viability (NCI-H596; first compound 0.04 µM) was 0.492. For the same molecule, the relative viability (NCI-H596; first compound 0.1265 µM) was 0.427, the relative viability (NCI-H596; first compound 0.4 µM) was 0.484 and the relative viability (NCI-H596; first compound 1.265 µM) was 0.402. For the same molecule, the relative viability (NCI-H441; first compound 0.04 µM) was 0.707, the relative viability (NCI-H441; first compound 0.1265 µM) was 0.692 and the relative viability (NCI-H441; first compound 0.4 µM) was 0.759. It also gave a relative viability (NCI-H441; first compound 1.265 µM) of 0.382, a relative viability (NCI-H650; first compound 0.04 µM) of 1.19 and a relative viability (NCI-H650; first compound 0.1265 µM) of 1.13. For the same molecule, the relative viability (NCI-H650; first compound 0.4 µM) was 0.928, the relative viability (NCI-H650; first compound 1.265 µM) was 0.737 and the relative viability (RERF-LC-KJ; first compound 0.04 µM) was 0.838. For the same molecule, the relative viability (RERF-LC-KJ; first compound 0.1265 µM) was 0.762, the relative viability (RERF-LC-KJ; first compound 0.4 µM) was 0.869 and the relative viability (RERF-LC-KJ; first compound 1.265 µM) was 0.82. The relative viability (NCI-H1651; first compound 0.04 µM) was 0.977, the relative viability (NCI-H1651; first compound 0.1265 µM) was 1.02 and the relative viability (NCI-H1651; first compound 0.4 µM) was 0.613. It also gave a relative viability (NCI-H1651; first compound 1.265 µM) of 0.713, a relative viability (NCI-H1755; first compound 0.04 µM) of 0.952 and a relative viability (NCI-H1755; first compound 0.1265 µM) of 1.02. The relative viability (NCI-H1755; first compound 0.4 µM) was 0.98, the relative viability (NCI-H1755; first compound 1.265 µM) was 0.923 and the relative viability (NCI-H460; first compound 0.04 µM) was 0.518. The relative viability (NCI-H460; first compound 0.1265 µM) was 0.607, the relative viability (NCI-H460; first compound 0.4 µM) was 0.483 and the relative viability (NCI-H460; first compound 1.265 µM) was 0.416. The relative viability (SK-MES-1; first compound 0.04 µM) was 0.83, the relative viability (SK-MES-1; first compound 0.1265 µM) was 1.01 and the relative viability (SK-MES-1; first compound 0.4 µM) was 0.834. For the same molecule, the relative viability (SK-MES-1; first compound 1.265 µM) was 0.803, the relative viability (NCI-H2347; first compound 0.04 µM) was 1.12 and the relative viability (NCI-H2347; first compound 0.1265 µM) was 1.13. The relative viability (NCI-H2347; first compound 0.4 µM) was 1.11, the relative viability (NCI-H2347; first compound 1.265 µM) was 0.81 and the relative viability (NCI-H3122; first compound 0.04 µM) was 0.724. For the same molecule, the relative viability (NCI-H3122; first compound 0.1265 µM) was 0.825, the relative viability (NCI-H3122; first compound 0.4 µM) was 0.752 and the relative viability (NCI-H3122; first compound 1.265 µM) was 0.617. For the same molecule, the relative viability (NCI-H520; first compound 0.04 µM) was 0.836, the relative viability (NCI-H520; first compound 0.1265 µM) was 1.09 and the relative viability (NCI-H520; first compound 0.4 µM) was 0.866. For the same molecule, the relative viability (NCI-H520; first compound 1.265 µM) was 0.852, the relative viability (NCI-H1915; first compound 0.04 µM) was 1.13 and the relative viability (NCI-H1915; first compound 0.1265 µM) was 1.07. For the same molecule, the relative viability (NCI-H1915; first compound 0.4 µM) was 1.04, the relative viability (NCI-H1915; first compound 1.265 µM) was 0.737 and the relative viability (NCI-H1792; first compound 0.04 µM) was 0.681. It also gave a relative viability (NCI-H1792; first compound 0.1265 µM) of 0.9, a relative viability (NCI-H1792; first compound 0.4 µM) of 0.688 and a relative viability (NCI-H1792; first compound 1.265 µM) of 0.66. The relative viability (NCI-H322M; first compound 0.04 µM) was 0.979, the relative viability (NCI-H322M; first compound 0.1265 µM) was 1 and the relative viability (NCI-H322M; first compound 0.4 µM) was 0.834. For the same molecule, the relative viability (NCI-H322M; first compound 1.265 µM) was 0.703.

Source: the supplement of paper PMC10307832
